Values quoted from earlier work, collected in patent publication US8198264B2, “Method for treating head and neck cancer” (National Cancer Center, priority 2006, dated 2012).

Legend:
[1] = system: advanced/relapsed head and neck cancer; settings: 5-FU drug alone, continuous intravenous infusion
[2] = system: squamous cell head and neck cancer; settings: regimen combined with radiotherapy, meta-analysis

O=c1[nH]cc(F)c(=O)[nH]1 [5-FU, 5-fluorouracil]
response rate [1]: 15%
odds ratio (add-on effect on survival) [2]: 0.66

Bleomycin
odds ratio (add-on effect on survival) [2]: 0.80

CO[C@@]12[C@H](COC(N)=O)C3=C(C(=O)C(C)=C(N)C3=O)N1C[C@@H]1N[C@@H]12 [Mitomycin C]
odds ratio (add-on effect on survival) [2]: 0.54
